# In PubChem BioAssay AID1576 (EPA DSSTox, 2009):
# The source made the active and inactive calls.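 Rule for the calls: active = chemicals shown by follow-up kinetic tests to compete for rat estrogen receptor sites, with a measured inhibition constant; inconclusive = some binding seen but constant unmeasurable owing to poor solubility; inactive = no binding up to top dose, or binding unconfirmed.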
# Target: Estrogen receptor (Rattus norvegicus) (UniProt P06211)
# Experiment: DSSTox (KIERBL) EPA Estrogen Receptor Ki Binding Study (Laws et al.) Database
# Details: Rat uterine cytosol ER, 3H-estradiol competitive binding
# Procedure: This study was conducted by EPA researchers to evaluate the validity of the rat uterine cytosolic (RUC) estrogen receptor (ER) competitive binding assay for use in the Endocrine Disruption Screening Program (EDSP). The assay measures the ability of radiolabeled 17-beta-estradiol (3H-E2) to bind with RUC ER in the presence of increasing concentrations of a test chemical. The goal is to employ this in vitro assay as a 1st tier screening tool for assessing the potential of structurally diverse environmental chemicals to bind to the ER, as well as to support research efforts to develop computational models to predict ER binding. A distinguishing feature of the present study was the use of secondary experimental analysis of binding curves and determination of Ki values to confirm that measured IC50 values corresponded to true positive results. The study concluded that a number of experimental conditions can confound interpretation of IC50 values obtained from the RUC ER-binding assay data and lead to false positive results. In particular, some chemical treatments likely alter the stability of the assay by changing the buffer pH, denaturing ER, or disrupting the ER binding kinetics. […] The chemicals used in this study were selected as part of a validation test for two Quantitative Structure-Activity Relationship (QSAR) models designed to predict ER binding [Fed. Reg. 67(250), 79618, Dec. 30, 2002]. Several hundred chemicals were initially screened, including approximately 100 chemicals selected from among the High Production Volume (HPV) chemicals included in EPA's Toxic Substances Control Act (TSCA) inventory that were predicted to be positive for ER binding, with the rest selected at random from the TSCA inventory. All chemicals were initially tested in ER competitive binding assays by Battelle Pacific Northwest Laboratories, Richland, Washington [EPA Contract Number 68-W-99-033, Task 6]. Approximately 50 chemicals produced binding curves that: (1) strongly implied competitive inhibition of ER binding, or (2) produced partial curves or irregular (non-sigmoid) binding curves. These chemicals were further evaluated in an ER competitive binding assay with secondary analysis to confirm true competitive inhibition and to determine an experimental Ki [U.S. EPA Contract 3D-5967-NTEX]. The results of RUC ER screening for these 50 structurally diverse chemicals, for which secondary confirmatory analyses were performed, were published in the Main Citation (Laws et al., 2006, Tox. Sci. 94:46-56). The remaining 228 chemicals were designated as non-binders based on initial screening studies.
# The DSSTox KIERBL data files include all published IC50 and Ki experimental results for the 50 chemicals included in the Main Citation (Laws et al., 2006) (denoted Group 1), as well as previously unpublished results for an additional 228 structually diverse TSCA chemicals for which no ER binding was observed (denoted Group 2. IC50 values were determined for 32 compounds in Group 1 as the concentration of a test chemical that inhibits the maximal specific binding of 0.33 nM radiolabeled (3H) 17-beta-estradiol (E2) to rat uterine cytosolic (RUC) estrogen receptor (ER) by 50%. Confirmation of binding status was accomplished by secondary analysis using Lineweaver-Burk plots and slope replots to determine true competitive inhibition and an experimental Ki value. Ki is the inhibition constant for the test chemical, i.e., the concentration of the test chemical that will bind to half the binding sites at equilibrium (displacing half of the probe-bound receptors), in the absence of radioligand or other competitors. Ki reported as Mean +/- Standard Error from n=2 experiments (see StandardError_Ki_n2) and is determined from Lineweaver-Burk plots over the tested dose range (TestedRange_microM). For more information see BindingCurve_Group and BindingCurve_Details. […]
# Sequence of Estrogen receptor (Rattus norvegicus) (P06211 whole entry, looked up): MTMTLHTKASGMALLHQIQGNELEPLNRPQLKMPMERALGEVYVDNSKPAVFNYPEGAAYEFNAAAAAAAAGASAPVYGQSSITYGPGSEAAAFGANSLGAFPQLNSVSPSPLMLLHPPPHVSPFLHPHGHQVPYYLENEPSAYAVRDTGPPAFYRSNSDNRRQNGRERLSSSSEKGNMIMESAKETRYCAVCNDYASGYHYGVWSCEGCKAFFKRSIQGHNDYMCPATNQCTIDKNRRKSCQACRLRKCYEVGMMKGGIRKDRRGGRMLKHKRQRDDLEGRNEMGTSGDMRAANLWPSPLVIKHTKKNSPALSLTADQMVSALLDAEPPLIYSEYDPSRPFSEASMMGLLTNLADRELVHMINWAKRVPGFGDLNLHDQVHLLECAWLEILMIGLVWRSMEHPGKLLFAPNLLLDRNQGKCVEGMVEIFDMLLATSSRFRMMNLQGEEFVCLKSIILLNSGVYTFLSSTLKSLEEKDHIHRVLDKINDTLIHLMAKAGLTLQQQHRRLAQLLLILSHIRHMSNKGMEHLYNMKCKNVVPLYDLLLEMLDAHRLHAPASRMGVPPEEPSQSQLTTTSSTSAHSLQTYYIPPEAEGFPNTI
row,SMILES,outcome
1,O=C(O)c1ccc2cc(O)ccc2c1,inactive; none
2,CCOC(=O)c1ccccc1C(=O)OCC,inactive; none
3,COC(=O)c1cccc(C)c1S(=O)(=O)NC(=O)Nc1nc(OCC(F)(F)F)nc(N(C)C)n1,inactive; none
4,Cc1c(C)c2c(c(C)c1O)CC[C@@](C)(CCC[C@H](C)CCC[C@H](C)CCCC(C)C)O2,inactive; none
5,COC(=O)c1ccccc1S(=O)(=O)NC(=O)N(C)c1nc(C)nc(OC)n1,inactive; none
6,O=C(Oc1ccccc1)c1ccc2ccccc2c1O,inactive; none
7,CN(C)c1ccc(C(=C2C=CC(=Nc3ccccc3)c3ccccc32)c2ccc(N(C)C)cc2)cc1,inactive; none
8,O=C=Nc1cccc(C(F)(F)F)c1,inactive; none
9,CCCCCCCCCC#N,inactive; none
10,O=S(=O)(O)c1ccc(N=Nc2c(O)ccc3ccccc23)cc1,inactive; none
11,CCCCCCCCCCCCCCC(Br)C(=O)O (centres undefined),inactive; incomplete
12,CCCCCCCCCCCCOCCOCCO,inactive; none
13,CC(=O)CC(=O)N(C)C,inactive; none
14,Nc1ccc(/C=C/c2ccc(N)cc2S(=O)(=O)O)c(S(=O)(=O)O)c1,inactive; none
15,O=C(Nc1ccc(Cl)cc1)Nc1ccc(Cl)c(Cl)c1,inactive; none
16,CCc1ccc(Br)cc1,inactive; incomplete
17,CCN(CC)c1ccc(C(=C2C=CC(=[N+](CC)CC)C=C2)c2ccc(N(CC)CC)cc2)cc1,inactive; none
18,Oc1ccc(Sc2ccc(O)cc2O)c(O)c1,inactive; incomplete
19,OCCOCCOCCO,inactive; none
20,O=Cc1ccccc1[N+](=O)[O-],inactive; none
21,CCC(=O)O,inactive; none
22,CC1CCCCN1CCCOC(=O)c1ccc(Cl)c(Cl)c1 (centres undefined),inactive; none
23,Cc1ccc(C)c(O)c1C,inactive; none

row,SMILES,outcome
1,OC1OCCOC1O (centres undefined),inactive; none
2,O=[N+]([O-])c1c(Cl)c(Cl)c(Cl)c(Cl)c1Cl,inactive; none
3,CN1CSC(=S)N(C)C1,inactive; none
4,CC(C)c1ccc2cc(C(C)C)ccc2c1,inactive; none
5,O=C(Cl)c1ccccc1C(=O)Cl,inactive; none
6,O=C(O)CC(O)(CC(=O)O)C(=O)O,inactive; none
7,CCCCCCC,inactive; none
8,Cc1ccc(C(=O)c2ccccc2)cc1,inactive; incomplete
9,CC1COc2ccccc2N1C(=O)C(Cl)Cl (centres undefined),inactive; none
10,CCCCCCCCCCCCCCCCCCN,inactive; none
11,O=C(Cl)c1ccccc1,inactive; none
12,Cc1cc(-n2nc3ccc(Cl)cc3n2)c(O)c(C(C)(C)C)c1,inactive; none
13,C=CCCCCCCCCC=O,inactive; incomplete
14,N#CCC(=O)O,inactive; none
15,OC1CCCCC1,inactive; none
16,CO[Si](CCCN)(OC)OC,inactive; none
17,COCCOC(=O)CC#N,inactive; none
18,CN(C)C(=O)Nc1ccc(Cl)c(Cl)c1,inactive; none
19,CCSC(=O)N(CC)C1CCCCC1,inactive; none
20,CCCCCCOC(=O)c1ccccc1C(=O)OCCCCCC,inactive; none
21,CCCCCCCC(=O)OCC(COC(=O)CCCCCCC)OC(=O)CCCCCCC,inactive; none
22,CC(C)COC(=O)C(C)C,inactive; none
23,CCO[Si](CCCCl)(OCC)OCC,inactive; none

row,SMILES,outcome
1,c1ccsc1,inactive; none
2,CCO[Si](C)(CCCN)OCC,inactive; none
3,O=C1CCC(=O)N1Br,inactive; none
4,CC1(C)C(C=C(Cl)Cl)C1C(=O)OC(C#N)c1cccc(Oc2ccccc2)c1 (centres undefined),inactive; none
5,CC(O)C(=O)O (centres undefined),inactive; none
6,COCCO,inactive; none
7,CCCCOC(=O)CCC(C)=O,inactive; none
8,CNC(=O)Oc1ccccc1OC(C)C,inactive; none
9,CCCCCCCCCCCCCC(=O)OCCCC,inactive; none
10,O=C(O)C1CCC(C(=O)O)CC1 (centres undefined),inactive; none
11,Fc1cccc(Cl)c1CCl,inactive; none
12,c1c[nH]cn1,inactive; none
13,C[Si]1(C)N[Si](C)(C)N[Si](C)(C)N1,inactive; incomplete
14,c1ccc(CNc2ncnc3c2ncn3C2CCCCO2)cc1 (centres undefined),inactive; none
15,CC(c1cc(C(C)(C)C)cc(C(C)(C)C)c1O)c1cc(C(C)(C)C)cc(C(C)(C)C)c1O,inactive; none
16,CCSC(C)CC1CC(=O)C(/C(CC)=N/OC/C=C/Cl)=C(O)C1 (centres undefined),inactive; none
17,CCCCCCC1CCC(=O)O1 (centres undefined),inactive; none
18,C[Si](O)(O)O,inactive; none
19,CCCCCCOC(C)=O,inactive; none
20,Cc1ccc([N+](=O)[O-])c(C)c1,inactive; none
21,NNC(=O)c1cccc(C(=O)NN)c1,inactive; none
22,Cc1cc(O)c(C(C)(C)C)cc1C(C)CC(c1cc(C(C)(C)C)c(O)cc1C)c1cc(C(C)(C)C)c(O)cc1C (centres undefined),inactive; none
23,CC(=O)c1ccc(O)cc1,inactive; none

row,SMILES,outcome
1,O=NN(c1ccccc1)c1ccccc1,inactive; none
2,ClC1(Cl)C2(Cl)C3(Cl)C4(Cl)C(Cl)(Cl)C5(Cl)C3(Cl)C1(Cl)C5(Cl)C24Cl (centres undefined),inactive; none
3,C1=CCCCC1,inactive; none
4,O=C(OCc1ccccc1)c1ccccc1O,inactive; incomplete
5,CCCCCN(CCCCC)CCCCC,inactive; none
6,CC(C)C(=O)C(C)C,inactive; none
7,NC(=O)c1ccc(N)cc1,inactive; none
8,O=C=NCc1cccc(CN=C=O)c1,inactive; none
9,CC(C)(C)c1cc(Cc2cc(C(C)(C)C)c(O)c(C(C)(C)C)c2)cc(C(C)(C)C)c1O,inactive; none
10,O=P(O)(O)CCCl,inactive; none
11,CSc1ccc(C(=O)C(C)(C)N2CCOCC2)cc1,inactive; none
12,CCC(C)N (centres undefined),inactive; none
13,NCCCCCCNCCCCCCN,inactive; none
14,C=CC(=O)OCCC(C)OC(=O)C=C (centres undefined),inactive; none
15,Cc1cc(C)c(C)cc1C,inactive; none
16,CCCCCCOc1ccccc1C(=O)O,inactive; none
17,CCN(CC)c1ccc(N)c(C)c1,inactive; none
18,O=C(Oc1ccccc1)c1ccccc1O,inactive; incomplete
19,O=C(O)c1c(Cl)c(Cl)c(Cl)c(Cl)c1C1c2cc(Br)c(O)c(Br)c2Oc2c1cc(Br)c(O)c2Br,inactive; none
20,CC(C)Oc1cc(-n2nc(C(C)(C)C)oc2=O)c(Cl)cc1Cl,inactive; none
21,CCC(CO)(CO)CO,inactive; none
22,O=C(Nc1ccccc1)c1cc(Cl)ccc1O,inactive; incomplete
23,CC1=CC(=C(c2ccc(N)cc2)c2ccc(N)cc2)C=CC1=N,inactive; none

# Same assay, conditions: Rat uterine cytosol ER, 3H-estradiol competitive binding; TestedRange_microM: 2.5-7.5
row,SMILES,Potency [µM]
1,Oc1ccc(C(c2ccc(O)cc2)(C(F)(F)F)C(F)(F)F)cc1,1.9

# Same assay, conditions: Rat uterine cytosol ER, 3H-estradiol competitive binding; TestedRange_microM: 10-100
SMILES,Potency [µM],outcome
O=S(=O)(c1ccc(O)cc1)c1ccc(O)cc1,82.4,
CCCCCCCCCCCCCCCCCC[N+](C)(C)C,,inactive; irregular
COC(OC)(C(=O)c1ccccc1)c1ccccc1,136,

# Same assay, conditions: Rat uterine cytosol ER, 3H-estradiol competitive binding; TestedRange_microM: 30-200
SMILES,outcome,Potency [µM]
O=C(Nc1ccc(Cl)c(Cl)c1)Nc1cc(Cl)ccc1Oc1ccc(Cl)cc1S(=O)(=O)O,inactive; partial,
Cc1cc(O)ccc1Cl,,373

# Same assay, conditions: Rat uterine cytosol ER, 3H-estradiol competitive binding; TestedRange_microM: 44-178
row,SMILES,Potency [µM]
1,CCCCCCCc1ccc(O)cc1,177
